Literature values as cited in US20220273701A1, “TREATMENT FOR REDUCING ADVERSE EVENTS INCLUDING CHEMOTHERAPY DISCOMFORT AND OTHER CONDITIONS” (priority 2019, published 2022).

Compound	pKa of Acid (or pH of 1:1 mixture)
C[C@H](N)C(=O)O [Alanine/Alanine anion, Alanine]	9.69
N[C@@H](CS)C(=O)O [Cysteine/Cysteine anion, Cysteine]	10.78
NCC(=O)O [Glycine/Glycine anion, Glycine]	9.60
CC[C@H](C)[C@H](N)C(=O)O [Isoleucine/Isoleucine anion, Isoleucine]	9.60
O=S(=O)(O)CCNC1CCCCC1 [N-Cyclohexyl-2-aminoethanesulfonic acid]	9.3
O=S(=O)(O)CCCNC1CCCCC1 [N-cyclohexyl-3-aminopropanesulfonic acid]	10.4
O=C(O)[C@@H]1CCCN1 [Proline/Proline anion, Proline]	10.60
CC(C)[C@H](N)C(=O)O [Valine/Valine anion, Valine]	9.62
O=S(=O)(O)CCCNC(CO)(CO)CO [tris(hydroxymethyl)methylamino]propanesulfonic acid]	8.55
Arginine anion [Arginine anion/Arginine dianion]	12.48
Boric Acid [Boric Acid/Borate]	9.0
Lysine anion [Lysine anion/Lysine dianion]	10.79
Tris(hydroxymethyl)aminomethane	8.2
Tyrosine anion [Tyrosine anion/Tyrosine dianion]	10.07
